Here are results for two compounds from patent publication US20240279338A1, “Combination Treatment of Cancer” (Ares Trading S.A., priority 2021, published 2024).

One assay deals with MBT2 cells. In words: CD73low MBT2 syngeneic tumor model, tumor growth. In kind it is in vivo. Particulars: MBT2, female C3H mice; Day 14; Compound A 300 mg/kg po BID; bintrafusp alfa 24.6 mg/kg iv days 0, 3, 6. How it is done:
Female C3H mice were inoculated with 1×10^6 MBT2 cells in the right upper flank and were treated with Compound A (300 mg/kg po, BID), bintrafusp alfa (24.6 mg/kg iv, days 0, 3, 6), Compound A+bintrafusp alfa, when average tumor volume reached approximately 53 mm^3. Vehicle (po, BID) and isotype control antibody injections (20 mg/kg iv, days 0, 3, 6) were used as controls. (A) Average tumor volumes with SEM, and (B) individual tumor volumes are presented. Tumor volume data were analyzed using two-way ANOVA followed by Tukey's multiple comparison test.
(§1) To determine whether combined treatment with the dual A2A/A2B receptor inhibitor “Compound A” ((S)-7-Oxa-2-aza-spiro[4.5]decane-2-carboxylic acid [7-(3,6-dihydro-2H-pyran-4-yl)-4-methoxy-thiazolo[4,5-c]pyridin-2-yl]-amide) and bintrafusp alfa can inhibit tumor growth in either CD73^hi or CD73^low models, tumor growth was monitored in […] syngeneic tumor models. Animals were inoculated with either CD73^hi tumor cells (4T1, E0771, or EMT6) or with CD73^low MC38, H22 or MBT2 tumor cells. For all tumor models, animals were treated with either 1) vehicle and isotype, 2) Compound A and isotype, 3) vehicle and bintrafusp alfa, or 4) Compound A and bintrafusp alfa. […]

In the next assay the test system is EMT6 cells. In words: CD73hi EMT6 syngeneic tumor model, tumor growth. The following applies: Day 10 post treatment initiation, Compound A 300 mg/kg po BID alone. In kind it is in vivo, mice. Here is the method: Female BALB/c mice were inoculated with 2.5×10^5 EMT6 cells into the right mammary fat pad and were treated with Compound A (300 mg/kg po, BID), bintrafusp alfa (24.6 mg/kg iv, days 0, 3, 6), Compound A+bintrafusp alfa, when average tumor volume reached approximately 60 mm^3. Vehicle (po, BID) and isotype control antibody injections (20 mg/kg iv, days 0, 3, 6) were used as controls. (A) Average tumor volumes with SEM, and (B) individual tumor volumes are presented. Tumor volume data were analyzed using two-way ANOVA followed by Tukey's multiple comparison test.
as §1

As to “bintrafusp alfa: anti-PD-L1:TGFβRII fusion protein, CAS 1918149-01-5; human IgG1 antibody against PD-L1 fused to extracellular domain of human TGF-β receptor II”, the “tumor growth inhibition, T/C” value with MBT2 cells was found to be 29.9%.
In the case of `COc1ncc(C2=CCOCC2)c2sc(NC(=O)N3CC[C@@]4(CCCOC4)C3)nc12` [Compound A, (S)-7-Oxa-2-aza-spiro[4.5]decane-2-carboxylic acid [7-(3,6-dihydro-2H-pyran-4-yl)-4-methoxy-thiazolo[4,5-c]pyridin-2-yl]-amide], the “tumor growth inhibition” value in the assay with EMT6 cells was “did not show tumor growth inhibition”.
